21 compounds from US12304912B2, “Fused bicyclic RAF inhibitors and methods for use thereof” (Jazz Pharmaceuticals Ireland Limited, priority 2020, dated 2025) can be followed below.

Each structure is given as a SMILES string. Where a name gives a salt, the structure may show the parent alone. Read-outs that look alike come from different tables or passages of the source.

The nature of data set [1]: Plasma protein binding assay, mouse plasma (mPPB). It counts as in vitro ADME. The note with it: 5 μM. The method in brief: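 Equilibrium dialysis of 5 μM compound in previously frozen human or mouse plasma against phosphate buffer, 4 h at 37 °C. Both chambers quantified by LC-MS/MS; % free = (1−((PC−PF)/PC))×100.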
The subject of data set [2] is BRAF monomers in A375 cells. The data set is described as follows: A375 AlphaLISA SureFire pERK1/2 cellular assay (monomer). It counts as cell-based. The note with it: Homo sapiens, A-375; A375 cells, 1 hr; read-out: pERK A375 (1 hr) pIC50 (converted). The method in brief:
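BRAF^V600E A375 melanoma cells seeded at 30,000/well in DMEM with 10% FBS, dosed without medium exchange in a 10-point series from 10 μM at 1/2-log steps, 1 h at 37 °C. Phospho-ERK1/2 (Thr202/Tyr204) measured in lysates by AlphaLISA SureFire; absolute IC50 relative to DMSO control.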

For data set [3], the system named is constitutive ERK phosphorylation in HCT-116 cells. In words: HCT-116 AlphaLISA SureFire pERK1/2 cellular assay. It counts as cell-based, human. The note with it: Homo sapiens, HCT-116, HCT116 cells, 2 hr, read-out: pERK HCT116 (2 hr) Abs pIC50 (converted). The method in brief:
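Cells seeded overnight (30,000/well for 2 h, 15,000/well for 24 h), then dosed in 1% FBS medium with a 10-point series from 1 μM top, 1/3 log steps, for 2 or 24 h at 37 °C. Lysates read by AlphaLISA for Thr202/Tyr204 pERK1/2; absolute IC50 versus DMSO control.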
For orientation: Alpha assays give light when donor and acceptor beads are brought close together.

Setting [4] is: equilibrium dialysis 4 hours 37° C.
Where [5] appears, read: equilibrium dialysis 4 hours at 37° C.

`O=C1CCc2c(Oc3ccc4c(c3)CC(c3nc(-c5cccc(C(F)(F)F)c5)c[nH]3)CO4)ccnc2N1` (stereo not drawn) [Compound 12, 5-[3-[4-[3-(trifluoromethyl)phenyl]-1H-imidazol-2-yl]chroman-6-yl]oxy-3,4-dihydro-1H-1,8-naphthyridin-2-one]: the “mPPB (% free)” value in data set [1] (setting [4]) is on record as <0.1 % free. The IC50 was 42.7 nM in data set [2] and 257 nM in data set [3] (absolute IC50).
Turning to `CC(C)(C)CCc1c[nH]c(C2COc3ccc(Oc4ccnc5c4CCC(=O)N5)cc3C2)n1` (stereo not drawn) [Compound 115, 5-[3-[4-(3,3-dimethylbutyl)-1H-imidazol-2-yl]chroman-6-yl]oxy-3,4-dihydro-1H-1,8-naphthyridin-2-one], the “mPPB (% free)” value in data set [1] (setting [5]) is listed as 0.3 % free. In addition, the IC50 is 13.8 nM in data set [2] and 45.7 nM in data set [3] (Abs).
Take `CC(=O)Nc1cc(Oc2ccc3c(c2)CC(c2nc(-c4ccccc4)c[nH]2)CO3)ccn1` (stereo not drawn) [Compound 156, N-[4-[3-(4-phenyl-1H-imidazol-2-yl)chroman-6-yl]oxy-2-pyridyl]acetamide]: the “mPPB (% free)” value in data set [1] (setting [5]) was 0.4 % free. In addition, the IC50 is 178 nM in data set [2] and 42.7 nM in data set [3] (Abs).
On to `O=C1CCc2c(Oc3ccc4c(c3)CC(c3nc(-c5cncc(C(F)F)c5)c[nH]3)CO4)ccnc2N1` (stereo not drawn) [Compound 105, 5-[3-[4-[5-(difluoromethyl)-3-pyridyl]-1H-imidazol-2-yl]chroman-6-yl]oxy-3,4-dihydro-1H-1,8-naphthyridin-2-one], for which the “mPPB (% free)” value in data set [1] (setting [5]) was 0.86 % free. The IC50 is 417 nM in data set [2] and 178 nM in data set [3] (Abs).
`O=C1CCc2c(Oc3ccc4c(c3)CC(c3nc(-c5cccnc5C(F)(F)F)c[nH]3)CO4)ccnc2N1` (stereo not drawn) [Compound 128, 5-[3-[4-[2-(trifluoromethyl)-3-pyridyl]-1H-imidazol-2-yl]chroman-6-yl]oxy-3,4-dihydro-1H-1,8-naphthyridin-2-one]: the “mPPB (% free)” value in data set [1] (setting [5]) is recorded as 1.2 % free. Also, the IC50 in data set [2] is 832 nM; in data set [3] (Abs) it was 389 nM.
On to `CCc1cc(-c2c[nH]c(C3COc4ccc(Oc5ccnc6c5CCC(=O)N6)cc4C3)n2)n(C)n1` (stereo not drawn) [Compound 111], for which the “mPPB (% free)” value in data set [1] (setting [5]) was determined as 1.73 % free. Also, the IC50 in data set [2] was 537 nM; in data set [3] (Abs), 219 nM.
For `Cc1ccc(-c2c[nH]c(C3COc4ccc(Oc5ccnc6c5CCC(=O)N6)cc4C3)n2)s1` (stereo not drawn) [Compound 110], the “mPPB (% free)” value in data set [1] (setting [5]) is on record as 0.1 % free. In addition, the IC50 in data set [2] is 107 nM; in data set [3] (Abs), 89.1 nM.
Regarding `O=C1CCc2c(Oc3ccc4c(c3)CC(c3nc5cc(C(F)(F)F)ncc5[nH]3)CO4)ccnc2N1` (racemic) [Compound 32], the “mPPB (% free)” value in data set [1] (setting [4]) was found to be 3.2 % free. The IC50 in data set [2] was 251 nM; in data set [3] (absolute IC50), 229 nM.
Take `O=C1CCc2c(Oc3ccc4c(c3)CN(c3nc5cc(C(F)(F)F)ccc5[nH]3)CC4)ccnc2N1` [Compound 160]: the “mPPB (% free)” value in data set [1] (setting [5]) is <0.1 % free. The figures for the IC50 in data set [2] and in data set [3] (Abs) were 871 nM and 135 nM, respectively.
The like results for `O=C1CCc2c(Oc3ccc4c(c3)CC(c3nc5ccncc5[nH]3)CO4)ccnc2N1` (stereo not drawn) [Compound 134, 5-[3-(3H-imidazo[4,5-c]pyridin-2-yl)chroman-6-yl]oxy-3,4-dihydro-1H-1,8-naphthyridin-2-one] were, in that order, 9.5 % free, > 1000 nM and > 1000 nM.
Regarding `Cc1cc(-c2c[nH]c(C3COc4ccc(Oc5ccnc6c5CCC(=O)N6)cc4C3)n2)n(CC(F)(F)F)n1` (stereo not drawn) [Compound 126, 5-[3-[4-[5-methyl-2-(2,2,2-trifluoroethyl)pyrazol-3-yl]-1H-imidazol-2-yl]chroman-6-yl]oxy-3,4-dihydro-1H-1,8-naphthyridin-2-one], in data set [1] (setting [5]), the “mPPB (% free)” value amounted to 0.7 % free. For the same compound, the IC50 in data set [2] is 794 nM; in data set [3] (Abs) it was 501 nM.
The like results for `Cc1c[nH]c(-c2cc(Oc3ccc4c(c3)CC(c3nc(-c5ccccc5)c[nH]3)CO4)ccn2)n1` (stereo not drawn) [Compound 143, 2-(4-methyl-1H-imidazol-2-yl)-4-[3-(4-phenyl-1H-imidazol-2-yl)chroman-6-yl]oxy-pyridine] were, in that order, <0.1 % free, 794 nM and 309 nM.
Regarding `O=C(Nc1nccc(Oc2ccc3c(c2)CC(c2nc(-c4ccccc4)c[nH]2)CO3)n1)C1CC1` (stereo not drawn) [Compound 148, N-[4-[3-(4-phenyl-1H-imidazol-2-yl)chroman-6-yl]oxypyrimidin-2-yl]cyclopropanecarboxamide], the “mPPB (% free)” value in data set [1] (setting [5]) came out at 0.4 % free. Also, the IC50 in data set [2] is 1230 nM; in data set [3] (Abs), 302 nM.
As to `Cc1cc(-c2c[nH]c(C3COc4ccc(Oc5ccnc6c5CCC(=O)N6)cc4C3)n2)n(C(C)C)n1` (stereo not drawn) [Compound 112, 5-[3-[4-(2-isopropyl-5-methyl-pyrazol-3-yl)-1H-imidazol-2-yl]chroman-6-yl]oxy-3,4-dihydro-1H-1,8-naphthyridin-2-one], in data set [1] (setting [5]), the “mPPB (% free)” value is given as 2.0 % free. Moreover, the IC50 in data set [2] is 1780 nM; in data set [3] (Abs), > 1000 nM.
In the case of `O=C1CCc2c(Oc3ccc4c(c3)CC(c3nc5cc(F)c(F)cc5[nH]3)CO4)ccnc2N1` (stereo not drawn) [Compound 23], the “mPPB (% free)” value in data set [1] (setting [4]) worked out at 0.5 % free. The IC50 in data set [2] is 257 nM; in data set [3] (absolute IC50), 316 nM.
Turning to `O=C1CCc2c(Oc3ccc4c(c3)CN(c3nc(-c5ccccc5)n[nH]3)CC4)ccnc2N1` [Compound 44, 5-[[2-(3-phenyl-1H-1,2,4-triazol-5-yl)-3,4-dihydro-1H-isoquinolin-7-yl]oxy]-3,4-dihydro-1H-1,8-naphthyridin-2-one hydrochloride], in data set [1] (setting [4]), the “mPPB (% free)” value is given as 0.9 % free. For the same compound, the figures for the IC50 in data set [2] and in data set [3] (absolute IC50) were 1200 nM and 537 nM, respectively.
Consider `O=C1CCc2c(Oc3ccc4c(c3)CC(c3nc(-c5cncc(C(F)(F)F)c5)c[nH]3)CO4)ccnc2N1` (stereo not drawn) [Compound 103, 5-[3-[4-[5-(trifluoromethyl)-3-pyridyl]-1H-imidazol-2-yl]chroman-6-yl]oxy-3,4-dihydro-1H-1,8-naphthyridin-2-one], for which the “mPPB (% free)” value in data set [1] (setting [5]) was determined as 0.6 % free. Moreover, the results for the IC50 in data set [2] and in data set [3] (Abs) were 389 nM and 240 nM, respectively.
The like results for `O=C(Nc1cc(Oc2ccc3c(c2)CC(c2nc(-c4ccccc4)c[nH]2)CO3)ccn1)C1CC1(F)F` (stereo not drawn) [Compound 137, 2,2-difluoro-N-[4-[3-(4-phenyl-1H-imidazol-2-yl)chroman-6-yl]oxy-2-pyridyl]cyclopropanecarboxamide] were, in that order, <0.1 % free, 191 nM and 35.5 nM.
Consider `Cc1cc2nc(C3COc4ccc(Oc5ccnc6c5CCC(=O)N6)cc4C3)[nH]c2cc1C` (stereo not drawn) [Compound 29], for which the “mPPB (% free)” value in data set [1] (setting [4]) is reported as 0.6 % free. The figures for the IC50 in data set [2] and in data set [3] (absolute IC50) were 32.4 nM and 132 nM, respectively.
On to `O=C(Nc1cc(Oc2ccc3c(c2)CC(c2nc(-c4ccccc4)c[nH]2)CO3)ccn1)C1CC(F)(F)C1` (stereo not drawn) [Compound 139], for which the “mPPB (% free)” value in data set [1] (setting [5]) is on record as <0.1 % free. In addition, the IC50 is 1070 nM in data set [2] and 200 nM in data set [3] (Abs).
The matching figures for `O=C(Nc1cc(Oc2ccc3c(c2)CC(c2nc(-c4ccccc4)c[nH]2)CO3)ccn1)C1(F)CC1` (stereo not drawn) [Compound 138]: <0.1 % free, 1620 nM and 275 nM.
